According to the NIST ThermoML archive (doi:10.1016/j.jct.2017.05.001):

Experiment: wn = mass fraction of the nth substance listed
Settings: Liquid; for mass density: Vibrating tube method

OCCNCCO [diethanolamine] + O
viscosity [mPa·s]
Settings | w1 = 0.0993 | w1 = 0.1 | w1 = 0.2 | w1 = 0.3 | w1 = 0.3002 | w1 = 0.3997 | w1 = 0.4
293.15 K, 100 kPa, Concentric cylinders viscometry | – | 1.486 | 2.287 | 3.621 | – | – | 6.311
293.15 K, 100 kPa, Falling or rolling sphere viscometry | 1.493 | – | 2.219 | – | 3.633 | 6.248 | –
293.15 K, 5000 kPa, Falling or rolling sphere viscometry | 1.49 | – | 2.215 | – | 3.617 | 6.351 | –
293.15 K, 10000 kPa, Falling or rolling sphere viscometry | 1.486 | – | 2.214 | – | 3.635 | 6.416 | –
293.15 K, 15000 kPa, Falling or rolling sphere viscometry | 1.49 | – | 2.217 | – | 3.634 | 6.463 | –
293.15 K, 20000 kPa, Falling or rolling sphere viscometry | 1.487 | – | 2.217 | – | 3.661 | 6.534 | –
293.15 K, 25000 kPa, Falling or rolling sphere viscometry | 1.488 | – | 2.218 | – | 3.676 | 6.598 | –
293.15 K, 30000 kPa, Falling or rolling sphere viscometry | 1.487 | – | 2.22 | – | 3.688 | 6.6 | –
293.15 K, 40000 kPa, Falling or rolling sphere viscometry | 1.486 | – | 2.221 | – | 3.714 | 6.683 | –
293.15 K, 60000 kPa, Falling or rolling sphere viscometry | 1.487 | – | 2.242 | – | 3.766 | 6.853 | –
293.15 K, 80000 kPa, Falling or rolling sphere viscometry | 1.49 | – | 2.26 | – | 3.818 | 6.973 | –
293.15 K, 100000 kPa, Falling or rolling sphere viscometry | 1.494 | – | 2.277 | – | 3.874 | 7.169 | –
313.15 K, 100 kPa, Concentric cylinders viscometry | – | 0.914 | 1.343 | 1.977 | – | – | 3.197
313.15 K, 100 kPa, Falling or rolling sphere viscometry | 0.9237 | – | 1.304 | – | 1.98 | 3.168 | –
313.15 K, 5000 kPa, Falling or rolling sphere viscometry | 0.915 | – | 1.292 | – | 1.976 | 3.174 | –
313.15 K, 10000 kPa, Falling or rolling sphere viscometry | 0.9172 | – | 1.296 | – | 1.983 | 3.222 | –
313.15 K, 15000 kPa, Falling or rolling sphere viscometry | 0.9188 | – | 1.301 | – | 1.993 | 3.248 | –
313.15 K, 20000 kPa, Falling or rolling sphere viscometry | 0.9192 | – | 1.303 | – | 2.004 | 3.239 | –
313.15 K, 25000 kPa, Falling or rolling sphere viscometry | 0.9215 | – | 1.309 | – | 2.012 | 3.28 | –
313.15 K, 30000 kPa, Falling or rolling sphere viscometry | 0.9226 | – | 1.312 | – | 2.022 | 3.303 | –
313.15 K, 40000 kPa, Falling or rolling sphere viscometry | 0.9253 | – | 1.318 | – | 2.039 | 3.361 | –
313.15 K, 60000 kPa, Falling or rolling sphere viscometry | 0.9334 | – | 1.335 | – | 2.08 | 3.438 | –
313.15 K, 80000 kPa, Falling or rolling sphere viscometry | 0.9414 | – | 1.353 | – | 2.119 | 3.538 | –
313.15 K, 100000 kPa, Falling or rolling sphere viscometry | 0.9509 | – | 1.371 | – | 2.158 | 3.625 | –
333.15 K, 100 kPa, Concentric cylinders viscometry | – | 0.64 | 0.871 | 1.248 | – | – | 1.864
333.15 K, 100 kPa, Falling or rolling sphere viscometry | 0.6268 | – | 0.8581 | – | 1.247 | 1.885 | –
333.15 K, 5000 kPa, Falling or rolling sphere viscometry | 0.6258 | – | 0.8575 | – | 1.243 | 1.872 | –
333.15 K, 10000 kPa, Falling or rolling sphere viscometry | 0.6274 | – | 0.8602 | – | 1.248 | 1.886 | –
333.15 K, 15000 kPa, Falling or rolling sphere viscometry | 0.6269 | – | 0.8632 | – | 1.254 | 1.9 | –
333.15 K, 20000 kPa, Falling or rolling sphere viscometry | 0.6303 | – | 0.8673 | – | 1.258 | 1.912 | –
333.15 K, 25000 kPa, Falling or rolling sphere viscometry | 0.6312 | – | 0.8717 | – | 1.265 | 1.896 | –
333.15 K, 30000 kPa, Falling or rolling sphere viscometry | 0.6339 | – | 0.8763 | – | 1.271 | 1.943 | –
333.15 K, 40000 kPa, Falling or rolling sphere viscometry | 0.6383 | – | 0.8845 | – | 1.283 | 1.973 | –
333.15 K, 60000 kPa, Falling or rolling sphere viscometry | 0.6452 | – | 0.8989 | – | 1.312 | 2.029 | –
333.15 K, 80000 kPa, Falling or rolling sphere viscometry | 0.6532 | – | 0.9136 | – | 1.337 | 2.086 | –
333.15 K, 100000 kPa, Falling or rolling sphere viscometry | 0.6623 | – | 0.9264 | – | 1.365 | 2.136 | –

mass density [kg/m3]
Settings | w1 = 0.0993 | w1 = 0.2 | w1 = 0.3002 | w1 = 0.3997
293.15 K, 100 kPa | 1009.4 | 1021.6 | 1034.5 | 1047.5
293.15 K, 500 kPa | 1009.5 | 1021.7 | 1034.7 | 1047.7
293.15 K, 1000 kPa | 1009.7 | 1021.9 | 1034.8 | 1047.9
293.15 K, 2000 kPa | 1010.2 | 1022.3 | 1035.2 | 1048.2
293.15 K, 5000 kPa | 1011.4 | 1023.5 | 1036.3 | 1049.3
293.15 K, 10000 kPa | 1013.6 | 1025.5 | 1038.2 | 1051
293.15 K, 15000 kPa | 1015.6 | 1027.4 | 1040 | 1052.8
293.15 K, 20000 kPa | 1017.7 | 1029.4 | 1041.8 | 1054.5
293.15 K, 30000 kPa | 1021.8 | 1033.3 | 1045.4 | 1058
293.15 K, 40000 kPa | 1025.9 | 1037 | 1049 | 1061.4
293.15 K, 50000 kPa | 1029.7 | 1040.7 | 1052.5 | 1064.7
293.15 K, 60000 kPa | 1033.6 | 1044.4 | 1055.9 | 1068
293.15 K, 70000 kPa | 1037.6 | 1048 | 1059.3 | 1071.2
293.15 K, 80000 kPa | 1041.1 | 1051.4 | 1062.5 | 1074.3
293.15 K, 90000 kPa | 1044.8 | 1054.9 | 1065.8 | 1077.4
293.15 K, 100000 kPa | 1048.5 | 1058.4 | 1069.1 | 1080.6
293.15 K, 110000 kPa | 1051.9 | 1061.6 | 1072.1 | 1083.5
293.15 K, 120000 kPa | 1055.4 | 1064.9 | 1075.3 | 1086.5
293.15 K, 130000 kPa | 1059 | 1068.3 | 1078.5 | 1089.6
293.15 K, 140000 kPa | 1062.2 | 1071.4 | 1081.4 | 1092.4
313.15 K, 100 kPa | 1002.9 | 1014.3 | 1026 | 1038
313.15 K, 500 kPa | 1003.1 | 1014.4 | 1026.2 | 1038.2
313.15 K, 1000 kPa | 1003.4 | 1014.6 | 1026.4 | 1038.4
313.15 K, 2000 kPa | 1003.7 | 1015 | 1026.7 | 1038.7
313.15 K, 5000 kPa | 1005 | 1016.2 | 1027.9 | 1039.8
313.15 K, 10000 kPa | 1007 | 1018.2 | 1029.7 | 1041.7
313.15 K, 15000 kPa | 1009 | 1020.1 | 1031.6 | 1043.4
313.15 K, 20000 kPa | 1011 | 1022 | 1033.4 | 1045.1
313.15 K, 30000 kPa | 1015.1 | 1025.8 | 1037.1 | 1048.7
313.15 K, 40000 kPa | 1019.1 | 1029.7 | 1040.7 | 1052.3
313.15 K, 50000 kPa | 1022.8 | 1033.2 | 1044.1 | 1055.6
313.15 K, 60000 kPa | 1026.6 | 1036.9 | 1047.6 | 1059
313.15 K, 70000 kPa | 1030.4 | 1040.4 | 1051 | 1062.2
313.15 K, 80000 kPa | 1033.9 | 1043.8 | 1054.3 | 1065.4
313.15 K, 90000 kPa | 1037.3 | 1047.1 | 1057.5 | 1068.5
313.15 K, 100000 kPa | 1040.9 | 1050.6 | 1060.8 | 1071.6
313.15 K, 110000 kPa | 1044.4 | 1053.9 | 1063.9 | 1074.7
313.15 K, 120000 kPa | 1047.7 | 1057.1 | 1067.1 | 1077.7
313.15 K, 130000 kPa | 1051.1 | 1060.3 | 1070.2 | 1080.7
313.15 K, 140000 kPa | 1054.4 | 1063.5 | 1073.3 | 1083.6
333.15 K, 100 kPa | 993.4 | 1004.2 | 1015.4 | 1026.6
333.15 K, 500 kPa | 993.7 | 1004.4 | 1015.5 | 1026.8
333.15 K, 1000 kPa | 993.9 | 1004.6 | 1015.7 | 1027
333.15 K, 2000 kPa | 994.3 | 1005 | 1016.2 | 1027.4
333.15 K, 5000 kPa | 995.5 | 1006.2 | 1017.3 | 1028.5
333.15 K, 10000 kPa | 997.6 | 1008.2 | 1019.3 | 1030.4
333.15 K, 15000 kPa | 999.6 | 1010.2 | 1021.2 | 1032.3
333.15 K, 20000 kPa | 1001.6 | 1012.1 | 1023.1 | 1034.2
333.15 K, 30000 kPa | 1005.7 | 1016 | 1026.9 | 1037.8
333.15 K, 40000 kPa | 1009.7 | 1020 | 1030.6 | 1041.6
333.15 K, 50000 kPa | 1013.4 | 1023.6 | 1034.1 | 1045
333.15 K, 60000 kPa | 1017.2 | 1027.1 | 1037.7 | 1048.4
333.15 K, 70000 kPa | 1020.9 | 1030.8 | 1041.1 | 1051.8
333.15 K, 80000 kPa | 1024.5 | 1034.2 | 1044.4 | 1055
333.15 K, 90000 kPa | 1028 | 1037.5 | 1047.7 | 1058.2
333.15 K, 100000 kPa | 1031.5 | 1041 | 1051.1 | 1061.5
333.15 K, 110000 kPa | 1034.9 | 1044.2 | 1054.3 | 1064.6
333.15 K, 120000 kPa | 1038.4 | 1047.7 | 1057.5 | 1067.8
